The numbers were not newly measured in patent publication US20140081110A1, “ELECTROPHYSIOLOGICAL DIAGNOSIS AND TREATMENT FOR ASTHMA” (University of Liverpool, priority 2011, published 2014), which cites them from elsewhere.

In the data set the test system is normal airway. Conditions: UK guidance on asthma (British Guideline on the Management of Asthma, Revised January 2012).

`CC(=O)OC(C)C[N+](C)(C)C` (stereo not shown) [methacholine]: the “methacholine dose required to reduce the Forced Expiratory Volume in 1 Second (FEV1) by 20%” value is over 8 mg/mL.
